Laboratory results: patent US9856216B2, “Compounds as TNIK, IKKε and TBK1 inhibitors and pharmaceutical composition comprising same” (GREEN CROSS CORPORATION, priority 2015, dated 2018)
pIC50: −log10 of the molar value. Where a name gives a salt, the structure may show the parent alone.

biological target: T1, TNIK (Homo sapiens, UniProt Q9UKE5); experiment: ADP-Glo Kinase Assay, inhibition activity on TNIK; type: biochemical; conditions: not given
T1 construct: purchased Promega V4158
Method: The inhibition activities on TNIK, IKKε and TBK1 were measured by a luminometer, TNIK/IKKε/TBK1 Kinase Enzyme System (Promega, Ca# V4158; Invitrogen, PR8031B, Promega, Ca# V3991) and ADP-Glo Kinase Assay using ADP-Glo™ Kinase Analysis Kit (Promega, Ca# V9101) and a kinase reaction buffer [40 mM Tris(pH 7.5), 20 mM MgCl2, 0.1 mg/mL BSA] in accordance with the manufacturer's protocol.

T1 sequence (Q9UKE5 1-367 limits assumed): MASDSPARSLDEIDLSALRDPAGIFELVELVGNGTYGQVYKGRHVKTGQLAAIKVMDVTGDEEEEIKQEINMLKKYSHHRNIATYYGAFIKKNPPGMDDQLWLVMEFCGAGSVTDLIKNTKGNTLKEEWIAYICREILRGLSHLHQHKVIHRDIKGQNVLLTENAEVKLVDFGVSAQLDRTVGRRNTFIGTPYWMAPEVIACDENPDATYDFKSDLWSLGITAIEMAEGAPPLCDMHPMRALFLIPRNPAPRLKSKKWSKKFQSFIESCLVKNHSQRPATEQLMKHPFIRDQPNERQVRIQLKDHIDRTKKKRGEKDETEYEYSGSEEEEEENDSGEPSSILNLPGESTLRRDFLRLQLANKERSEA

Question: How did the “TNIK (μM)” value turn out when `O=C1NCc2c(-c3ccccc3)ccc(NCCN3C(=O)c4ccccc4C3=O)c21` [Example 257, 2-(2-((3-Oxo-7-phenylisoindolin-4-yl)amino)ethyl)isoindolin-1,3-dione] was run?
Answer: Insoluble

Question: Which “TNIK (μM)” value does the source give for `O=C1NCc2c(-c3ccccc3)ccc(NCCCN3C(=O)c4ccccc4C3=O)c21` [Example 264, 2-(3-((3-Oxo-7-phenylisoindolin-4-yl)amino)propyl)isoindolin-1,3-dione] here?
Answer: Insoluble

Question: `COc1cccc(-c2ccc(N)c3c2C(=O)NC3=O)c1OC` [Example 273, 4-Amino-7-(2,3-dimethoxyphenyl)isoindolin-1,3-dione] was tested. Which “TNIK (μM)” value did it give?
Answer: Insoluble

same assay, conditions: read-out: TNIK

Question: `CN1CCN(CCNc2ccc(-c3ccccc3)c3c2C(=O)NC3)CC1` [Example 258, 7-((2-(4-Methylpiperazin-1-yl)ethyl)amino)-4-phenylisoindolin-1-one] was tested. Which pIC50 did it give?
Answer: < 4.70

Question: `O=C1NCc2c(-c3ccccc3)ccc(NCCN3CCCCC3)c21` [Example 259, 4-Phenyl-7-((2-(piperidin-1-yl)ethyl)amino)isoindolin-1-one] was tested. Which pIC50 did it give?
Answer: < 4.70

Question: How did the pIC50 turn out when `O=C1NCc2c(-c3ccccc3)ccc(NCCN3CCOCC3)c21` [Example 260, 7-((2-Morpholinoethyl)amino)-4-phenylisoindolin-1-one] was run?
Answer: < 4.70

Question: With `CNCCNc1ccc(-c2ccccc2)c2c1C(=O)NC2` [Example 261, 7-((2-(Methylamino)ethyl)amino)-4-phenylisoindolin-1-one] as the compound, how does the pIC50 read?
Answer: < 4.70

Question: `O=C1NCc2c(-c3ccccc3)ccc(NCCN3CCCC3)c21` [Example 262, 4-Phenyl-7-((2-(pyrrolidin-1-yl)ethyl)amino)isoindolin-1-one] was tested. Which pIC50 did it give?
Answer: < 4.70

Question: `O=C1NCc2c(-c3ccccc3)ccc(NCc3ccccc3)c21` [Example 263, 7-(Benzylamino)-4-phenylisoindolin-1-one] was tested. Which pIC50 did it give?
Answer: < 4.70

Question: `Nc1ccc(-c2ccccc2)c2c1C(=O)NC2=O` [Example 271, 4-Amino-7-phenylisoindolin-1,3-dione] was tested. Which pIC50 did it give?
Answer: 5.60

Question: `COc1ccccc1-c1ccc(N)c2c1C(=O)NC2=O` [Example 272, 4-Amino-7-(2-methoxyphenyl)isoindolin-1,3-dione] was tested. Which pIC50 did it give?
Answer: 4.96

Question: How did the pIC50 turn out when `Nc1ccc(-c2ccco2)c2c1C(=O)NC2=O` [Example 274, 4-Amino-7-(furan-2-yl)isoindolin-1,3-dione] was run?
Answer: 5.44

Question: `Nc1ccc(-c2cccs2)c2c1C(=O)NC2=O` [Example 275, 4-Amino-7-(thiophen-2-yl)isoindolin-1,3-dione] was tested. Which pIC50 did it give?
Answer: 5.96

Question: `O=C(Nc1ccc(-c2ccccc2)c2c1C(=O)NC2=O)c1ccccc1` [Example 276, N-(1,3-dioxo-7-phenylisoindolin-4-yl)benzamide] was tested. Which pIC50 did it give?
Answer: 5.96

Question: How did the pIC50 turn out when `COc1ccccc1-c1ccc(NC(=O)c2ccccc2)c2c1C(=O)NC2=O` [Example 277, N-(7-(2-methoxyphenyl)-1,3-dioxoisoindolin-4-yl)benzamide] was run?
Answer: 6.19

Question: `COc1cccc(-c2ccc(NC(=O)c3ccccc3)c3c2C(=O)NC3=O)c1OC` [Example 278, N-(7-(2,3-dimethoxyphenyl)-1,3-dioxoisoindolin-4-yl) benzamide] was tested. Which pIC50 did it give?
Answer: 6.39

Question: `O=C(Nc1ncc(-c2ccccc2)c2c1C(=O)NC2)c1ccc(F)cc1` [Example 279, 4-Fluoro-N-(3-oxo-7-phenyl-2,3-dihydro-1H-pyrrolo[3,4-c]pyridin-4-yl)benzamide] was tested. Which pIC50 did it give?
Answer: < 4.70

Question: `COc1cccc(-c2ccc(NC(=O)c3ccc(NCCCN4CCCC4)cc3)c3c2CNC3=O)c1OC` [Example 280, N-(7-(2,3-dimethoxyphenyl)-3-oxoisoindolin-4-yl)-4-((3-(pyrrolidin-1-yl)propyl)amino)benzamide] was tested. Which pIC50 did it give?
Answer: 7.14

Question: With `CN(C)CCNc1ccc(C(=O)Nc2ccc(Br)c3c2C(=O)NC3)cc1` [Example 281, N-(7-bromo-3-oxoisoindolin-4-yl)-4-((2-(dimethylamino)ethyl)amino)benzamide] as the compound, how does the pIC50 read?
Answer: 5.62

Question: How did the pIC50 turn out when `O=C(Nc1ccc(Br)c2c1C(=O)NC2)c1ccc(NCCCN2CCCCC2)cc1` [Example 282, N-(7-bromo-3-oxoisoindolin-4-yl)-4-((3-(piperidin-1-yl)propyl)amino)benzamide] was run?
Answer: 5.85

Question: How did the pIC50 turn out when `O=C(Nc1ccc(Br)c2c1C(=O)NC2)c1ccc(NCCN2CCCC2)cc1` [Example 283, N-(7-bromo-3-oxoisoindolin-4-yl)-4-((2-(pyrrolidin-1-yl)ethyl)amino)benzamide] was run?
Answer: 5.75

Question: `O=C(Nc1ccc(Br)c2c1C(=O)NC2)c1ccc(NCCN2CCCCC2)cc1` [Example 284, N-(7-bromo-3-oxoisoindolin-4-yl)-4-((2-(piperidin-1-yl)ethyl)amino)benzamide] was tested. Which pIC50 did it give?
Answer: 5.81

Question: With `O=C(Nc1ccc(Br)c2c1C(=O)NC2)c1ccc(NCCN2CCCCCC2)cc1` [Example 285, 4-((2-(azepan-1-yl)ethyl)amino)-N-(7-bromo-3-oxoisoindolin-4-yl)benzamide] as the compound, how does the pIC50 read?
Answer: 5.95

Question: With `CN(C)CCCNc1ccc(C(=O)Nc2ccc(Br)c3c2C(=O)NC3)cc1` [Example 286, N-(7-bromo-3-oxoisoindolin-4-yl)-4-((3-(dimethylamino)propyl)amino)benzamide] as the compound, how does the pIC50 read?
Answer: 5.83

Question: `O=C(Nc1ccc(-c2ccco2)c2c1C(=O)NC2)c1ccc(NCCN2CCCC2)cc1` [Example 287, N-(7-(furan-2-yl)-3-oxoisoindolin-4-yl)-4-((2-(pyrrolidin-1-yl)ethyl)amino)benzamide] was tested. Which pIC50 did it give?
Answer: 6.18

Question: With `COCCNc1ccc(C(=O)Nc2ccc(-c3ccco3)c3c2C(=O)NC3)cc1` [Example 288, N-(7-(furan-2-yl)-3-oxoisoindolin-4-yl)-4-((2-methoxyethyl)amino)benzamide] as the compound, how does the pIC50 read?
Answer: 6.35

Question: How did the pIC50 turn out when `O=C(Nc1ccc(-c2ccco2)c2c1C(=O)NC2)c1ccc(NCCN2CCCCC2)cc1` [Example 289, N-(7-(furan-2-yl)-3-oxoisoindolin-4-yl)-4-((2-(piperidin-1-yl)ethyl)amino)benzamide] was run?
Answer: 6.44

Question: `O=C(Nc1ccc(-c2ccco2)c2c1C(=O)NC2)c1ccc(NCCN2CCOCC2)cc1` [Example 290, N-(7-(furan-2-yl)-3-oxoisoindolin-4-yl)-4-((2-morpholinoethyl)amino)benzamide] was tested. Which pIC50 did it give?
Answer: 6.74

Question: How did the pIC50 turn out when `CN(C)CCNc1ccc(C(=O)Nc2ccc(-c3ccco3)c3c2C(=O)NC3)cc1` [Example 291, 4-((2-(Dimethylamino)ethyl)amino)-N-(7-(furan-2-yl)-3-oxoisoindolin-4-yl)benzamide] was run?
Answer: 6.27

Question: `O=C(Nc1ccc(-c2ccco2)c2c1C(=O)NC2)c1ccc(NCCO)cc1` [Example 292, N-(7-(furan-2-yl)-3-oxoisoindolin-4-yl)-4-((2-hydroxyethyl)amino)benzamide] was tested. Which pIC50 did it give?
Answer: 6.33

Question: How did the pIC50 turn out when `O=C(Nc1ccc(-c2ccco2)c2c1C(=O)NC2)c1ccc(NCCN2CCCCCC2)cc1` [Example 293, 4-((2-(Azepan-1-yl)ethyl)amino)-N-(7-(furan-2-yl)-3-oxoisoindolin-4-yl)benzamide] was run?
Answer: 6.32

Question: With `CN1CCN(CCNc2ccc(C(=O)Nc3ccc(-c4ccco4)c4c3C(=O)NC4)cc2)CC1` [Example 294, N-(7-(furan-2-yl)-3-oxoisoindolin-4-yl)-4-((2-(4-methylpiperazin-1-yl)ethyl)amino)benzamide] as the compound, how does the pIC50 read?
Answer: 6.64

Question: With `CN1CCN(CCCNc2ccc(C(=O)Nc3ccc(-c4ccco4)c4c3C(=O)NC4)cc2)CC1` [Example 295, N-(7-(furan-2-yl)-3-oxoisoindolin-4-yl)-4-((3-(4-methylpiperazin-1-yl)propyl)amino)benzamide] as the compound, how does the pIC50 read?
Answer: 6.28

Question: How did the pIC50 turn out when `COc1cccc(-c2ccc(NC(=O)c3ccc(NCCCN4CCOCC4)cc3)c3c2CNC3=O)c1OC` [Example 296, N-(7-(2,3-dimethoxyphenyl)-3-oxoisoindolin-4-yl)-4-((3-morpholinopropyl)amino)benzamide] was run?
Answer: 7.07

Question: With `COc1cccc(-c2ccc(NC(=O)c3ccc(NCCN4CCOCC4)cc3)c3c2CNC3=O)c1OC` [Example 297, N-(7-(2,3-dimethoxyphenyl)-3-oxoisoindolin-4-yl)-4-((2-morpholinoethyl)amino)benzamide] as the compound, how does the pIC50 read?
Answer: 7.12

Question: How did the pIC50 turn out when `COc1cccc(-c2ccc(NC(=O)c3ccc(NCCN4CCCCC4)cc3)c3c2CNC3=O)c1OC` [Example 298, N-(7-(2,3-dimethoxyphenyl)-3-oxoisoindolin-4-yl)-4-((2-(piperidin-1-yl)ethyl)amino)benzamide] was run?
Answer: 7.11

Question: With `COc1cccc(-c2ccc(NC(=O)c3ccc(NCCN4CCCC4)cc3)c3c2CNC3=O)c1OC` [Example 299, N-(7-(2,3-dimethoxyphenyl)-3-oxoisoindolin-4-yl)-4-((2-(pyrrolidin-1-yl)ethyl)amino)benzamide] as the compound, how does the pIC50 read?
Answer: 7.30

Question: `COCCNc1ccc(C(=O)Nc2ccc(-c3cccc(OC)c3OC)c3c2C(=O)NC3)cc1` [Example 300, N-(7-(2,3-dimethoxyphenyl)-3-oxoisoindolin-4-yl)-4-((2-methoxyethyl)amino)benzamide] was tested. Which pIC50 did it give?
Answer: 6.96

Question: With `COc1cccc(-c2ccc(NC(=O)c3ccc(NCCN(C)C)cc3)c3c2CNC3=O)c1OC` [Example 301, N-(7-(2,3-dimethoxyphenyl)-3-oxoisoindolin-4-yl)-4-((2-(dimethylamino)ethyl)amino)benzamide] as the compound, how does the pIC50 read?
Answer: 7.00

Question: With `COc1ccccc1-c1ccc(NC(=O)c2ccc(NCCCN3CCCC3)cc2)c2c1CNC2=O` [Example 302, N-(7-(2-methoxyphenyl)-3-oxoisoindolin-4-yl)-4-((3-(pyrrolidin-1-yl)propyl)amino)benzamide] as the compound, how does the pIC50 read?
Answer: 6.80

Question: With `COc1ccccc1-c1ccc(NC(=O)c2ccc(NCCN3CCCC3)cc2)c2c1CNC2=O` [Example 303, N-(7-(2-methoxyphenyl)-3-oxoisoindolin-4-yl)-4-((2-(pyrrolidin-1-yl)ethyl)amino)benzamide hydrochloride] as the compound, how does the pIC50 read?
Answer: 6.52

Question: How did the pIC50 turn out when `COc1cccc(-c2ccc(NC(=O)c3ccc(NCCN4CCCC4)cc3)c3c2CNC3=O)c1OC` [Example 304, N-(7-(2,3-dimethoxyphenyl)-3-oxoisoindolin-4-yl)-4-((2-(pyrrolidin-1-yl)ethyl)amino)benzamide hydrochloride] was run?
Answer: 7.14

Question: How did the pIC50 turn out when `COc1ccccc1-c1ccc(NC(=O)c2ccc(NCCN(C)C)cc2)c2c1CNC2=O` [Example 305, 4-((2-(Dimethylamino)ethyl)amino)-N-(7-(2-methoxyphenyl)-3-oxoisoindolin-4-yl)benzamide] was run?
Answer: 6.70
